One data set relates to A2780. The experiment in a line: Cell proliferation assay. The settings on record: Homo sapiens; for IC50: Ovarian A2780. The class given is cell-based. Here is the method:
(§1) Measurement of the inhibitive effect of compounds on cancer cell proliferation was performed. The assays were performed under the following conditions: Cells are harvested at a concentration of 4×10^4 cells/ml in media. Volumes of 100 μL/well of these cell suspensions were added to a 96 well plate using a multichannel pipette. Plates were gently agitated to ensure an even dispersion of cells over a given plate. Cells were then incubated at 37° C., 5% CO2 overnight. Following this, 100 μL of compound at varying concentrations was added to wells in triplicate. Control wells are those with 100 μL media containing 0.33% DMSO added to cell suspension (this is the equivalent volume of DMSO found in the highest concentration of drug). Plates were then gently agitated, as above, and incubated at 37° C., 5% CO2 for 72 hrs (control wells have reached 80-90% confluency). Assessment of cell proliferation in the presence of Compounds C and F was determined by the acid phosphatase assay.
(§2) Following the incubation period of 72 hrs, media was removed from the plates. Each well on the plate was washed twice with 100 μL PBS. This was then removed and 100 μL of freshly prepared phosphatase substrate (10 mM p-nitrophenol phosphate in 0.1M sodium acetate, 0.1% triton X-100, pH 5.5) was added to each well. The plates were then incubated in the dark at 37° C. for 2 hours. Color development was monitored during this time. The enzymatic reaction was stopped by the addition of 50 μL of 1N NaOH. The plate was read in a dual beam plate reader at 405 nm with a reference wavelength of 620 nm. The absorbance reading of the latter is subtracted from the former, and the effect of the drug on cell proliferation was then measured as a percentage against the control cells (DMSO), which is taken as 0% inhibition.

The test system of the next data set is A549. The experiment in a line: Cell proliferation assay. The data set is classed as cell-based. The settings on record: Homo sapiens. The procedure:
as §1, §2

Another data set deals with HCT 116. The experiment in a line: Cell proliferation assay. The class given is cell-based. The settings on record: Homo sapiens. Here is the method: as §1, §2
Another data set deals with Jeko-1. In words: Cell proliferation assay. The data set is classed as cell-based. Conditions: Homo sapiens; for IC50: Mantle Cell Jeko-1, overexpression of Cyclin D. Here is the method:
as §1, §2

A further data set deals with OAW42. The experiment in a line: Cell proliferation assay. Conditions: Homo sapiens, OAW-42; for IC50: Ovarian OAW42. The data set is classed as cell-based. Here is the method:
as §1, §2

In the next data set the test system is TOV-112D. In words: Cell proliferation assay. The data set is classed as cell-based. The settings on record: Homo sapiens. The procedure: as §1, §2
Another data set deals with TOV-21G. The experiment in a line: Cell proliferation assay. The data set is classed as cell-based. Conditions: Homo sapiens. Here is the method: as §1, §2
The subject of a further data set is HCT-116 xenograft. The experiment in a line: Subcutaneous HCT-116 xenograft model, tumor volume. The data set is classed as in vivo, nude mice. Conditions: vs control. The procedure: The efficacy of Compound 42, Compound F, and Compound Q3 were evaluated in the treatment of subcutaneous HCT-116 xenograft model in nude mice.
Cell Culture: HCT-116 tumor cell lines were maintained in vitro as a monolayer culture in DMEM medium supplemented with 10% fetal bovine serum at 37° C. in an atmosphere of 5% CO2 in air. The tumor cells were routinely subcultured twice weekly by trypsin-EDTA treatment (0.05% Trypsin-EDTA) and 1:4 split: The cells in an exponential growth phase were harvested and counted for tumor inoculation.
Tumor Inoculation: Each, mouse was inoculated subcutaneously at the flank region with HCT-1.16 cells (1.0×106) in 0.1 ml of 1×PBS mixed with Matrigel (1:1) for tumor development. The day Xenotransplantation was performed is denoted as day 0.
Thirty (30) animals with approx 100-150 mm^3 tumors were selected for HCT-116 follow up experiment and randomly placed Into Groups 1, 2, […], 4, 5, and 6 as shown in Table 8.
Group Assignment: Before grouping and treatment, all animals were weighed and fee tumor volumes were confirmed (100-150 mm^3) using electronic caliper. Since the tumor volume can affect fee effectiveness of any given treatment mice into groups using randomized block design as following: First the experimental animals were divided into homogeneous blocks based on their tumor volume. Secondly, within each block, randomization of experimental animals to different groups By using randomized block design to assign experimental animals, we ensure that each animal has the same probability of being assigned to any given treatment groups and therefore systematic error is minimized.
(§3) Treatments were initiated when turner volume reached 100-150 mm^3. Treatments started on Day 5. Test compounds were administered intraperitoneally (II′) in 10 mg/mL solution comprising 10% N,N-dimethyl acetamide, 15% macrogol 15 hydroxy stearate, polyethylene glycol-15-hydroxystearate, and 75% aqueous hydroxypropyl-beta-cyclodextrin.
(§4) Observation and data collection: After tumor cells inoculation, the animals were checked daily for morbidity and mortality. At the time of routine monitoring, the animals were checked for any adverse effects of tumor growth and treatments on normal behavior such as mobility, visual estimation of food and water consumption, body weight gain/loss, eye/hair matting and any other abnormal effects, Death and observed clinical signs were recorded, per […] IACUC. Tumor volumes were measured every 3-4 days in two dimensions using an electronic caliper, sad the volume data are expressed in, mm3 using the formula: V=0.5 a×b^2 where a and b are fee long and short diameters of the tumor, respectively. Dosing and tumor volume measurement procedures were conducted in a Laminar Flow Cabinet according to Altogen Labs IACUC regulations.
Statistics: Summary statistics, the mean and the standard error of the mean (SEM), are provided for the tumor volume of each group at each time point. Statistical analysis of difference in tumor volume among the groups and the analysis of drug interaction were conducted on the data obtained after the final dose.

Data set [1] is described as follows: HCT-116 xenograft model, body weight and adverse events. The class given is in vivo. Conditions: for weight loss or adverse events: Groups 2-6 of Table 8, IP daily for 20 days; for body weight: throughout the duration of the study, Compound 42 1 and 5 mg/kg, Compound F 10 or 25 mg/kg. Here is the method: as §3, §4
Body weight loss daring fee study: Sacrifice fee mouse when one measurement of body weight loss (BWL)>20% (only for control animals). Animal research associated wife this study was conducted under Altogen Labs IACUC regulatory space. Altogen Labs IACUC guidelines were followed in case of BWL and any other conditions.

[2] abbreviates: CRC HCT-116, loss of p16 (mutant p53), read-out: Proliferation IC50.
Where [3] appears, read: Ovarian TOV112D, loss of p16 (mutant p53), read-out: Proliferation IC50.
Where [4] appears, read: Ovarian TOV21G, read-out: Proliferation IC50.
Setting [5] is: Groups 2-6 of Table 8 (Compound 42 1 and 5, Q3 5 and 15, F 25 mg/kg), IP daily for 20 days, 28 days.

“Also recorded” adds a separate entry of the source. Where two headings read alike, the source gives them in different places.

With `Cc1ccccc1C(=O)Nc1nc(NC(=O)c2ccccc2C)n(-c2ccccc2)n1` [Compound F, 2-methyl-N-[5-[(2-methylbenzoyl)amino]-1-phenyl-1,2,4-triazol-3-yl]benzamide], the IC50 with A2780 is 1.3 µM; in the data set on A549 (A549, 72 hrs, read-out: Cell Viability: IC50), 7.54 µM; in the data set on HCT 116 (setting [2]), 1.3 µM; in the data set on HCT 116 (HCT 116, 72 hrs, read-out: Cell Viability: IC50), 2 µM; with Jeko-1, over 2.5 µM; in the data set on OAW42, over 2.5 µM. In addition, the IC50 came to 0.99 µM in the data set with TOV-112D (TOV112D, TOV-112D, 72 hrs, read-out: Cell Viability: IC50); 0.85 µM in the data set with TOV-112D (setting [3]); 1.16 µM in the data set with TOV-21G (TOV21G, TOV-21G, 72 hrs, read-out: Cell Viability: IC50); 1.5 µM in the data set on TOV-21G (setting [4]). Further, the “tumor growth (tumor volume)” value was “substantially reduce tumor growth” in the data set with HCT-116 xenograft (10 mg/kg, over 28 days); “most substantially reduced; also recorded: substantially reduce tumor growth” in the data set with HCT-116 xenograft (25 mg/kg, IP, over 28 days); “reduce the tumor growth” in the data set with HCT-116 xenograft (setting [5]). In data set [1], the “weight loss or adverse events” value is listed as “No weight loss or any adverse events”. Moreover, the body weight result in [1] was “maintained body weight”.
Turning to `Cc1ccccc1C(=O)Nc1nc(NC(=O)c2ccccc2C)n(-c2ccc(OC(F)(F)F)cc2)n1` [Compound 42, N,N′-(1-(4-(trifluoromethoxy)phenyl)-1H-1,2,4-triazole-3,5-diyl)bis(2-methylbenzamide)], the IC50 in the data set on A2780 was 0.084 µM; with HCT 116 (setting [2]), 0.087 µM; in the data set with Jeko-1 it was 0.154 µM; in the data set on OAW42 it was 0.166 µM; in the data set with TOV-112D (setting [3]), 0.103 µM; in the data set with TOV-21G (setting [4]), 0.109 µM. Besides, the EC50 in the data set on A2780 (Table 7a, Ovarian (A2780)) came to 0.058 µM; with A549 (Table 7a, Lung (A549)) it was 0.072 µM; in the data set on HCT 116 (Table 7a, Colon (HCT-116), read-out: EC50), 0.087 µM; in the data set on Jeko-1 (Table 7a, Mantle Cell (Jeko-1)), 0.154 µM; in the data set on OAW42 (Table 7a, Ovarian (OAW42)) it was 0.166 µM; in the data set on TOV-112D (Table 7a, Ovarian (TOV112D), read-out: EC50), 0.098 µM. The molecule also returned an EC50 in the data set with TOV-21G (Table 7a, Ovarian (TOV21G)) of 0.074 µM. In addition, the “tumor growth (tumor volume)” value with HCT-116 xenograft (1 mg/kg, IP, over 28 days) is on record as “reduce tumor growth”; with HCT-116 xenograft (5 mg/kg, IP, over 28 days) it was “reduce tumor growth”; in the data set with HCT-116 xenograft (setting [5]), “reduce the tumor growth”. The “weight loss or adverse events” value in [1] was “No weight loss or any adverse events”. The body weight entry in data set [1] is reported as “maintained body weight”.
